In experiment [1] the target is T1, hTRPV1 (Homo sapiens, UniProt Q8NER1). Put plainly: hTRPV1 antagonism of capsaicin. Type of experiment: cell-based. The settings on record: for fold loss in antagonistic potency compared to the corresponding parent (1 or 2): less potent than parent.
The target in experiment [2] is T1, hTRPV1. Description: hTRPV1 antagonism of pH activation. The format is cell-based. Conditions: heat (45 °C), NADA.

The structures appear in SMILES notation.

T1 sequence (Q8NER1 whole entry): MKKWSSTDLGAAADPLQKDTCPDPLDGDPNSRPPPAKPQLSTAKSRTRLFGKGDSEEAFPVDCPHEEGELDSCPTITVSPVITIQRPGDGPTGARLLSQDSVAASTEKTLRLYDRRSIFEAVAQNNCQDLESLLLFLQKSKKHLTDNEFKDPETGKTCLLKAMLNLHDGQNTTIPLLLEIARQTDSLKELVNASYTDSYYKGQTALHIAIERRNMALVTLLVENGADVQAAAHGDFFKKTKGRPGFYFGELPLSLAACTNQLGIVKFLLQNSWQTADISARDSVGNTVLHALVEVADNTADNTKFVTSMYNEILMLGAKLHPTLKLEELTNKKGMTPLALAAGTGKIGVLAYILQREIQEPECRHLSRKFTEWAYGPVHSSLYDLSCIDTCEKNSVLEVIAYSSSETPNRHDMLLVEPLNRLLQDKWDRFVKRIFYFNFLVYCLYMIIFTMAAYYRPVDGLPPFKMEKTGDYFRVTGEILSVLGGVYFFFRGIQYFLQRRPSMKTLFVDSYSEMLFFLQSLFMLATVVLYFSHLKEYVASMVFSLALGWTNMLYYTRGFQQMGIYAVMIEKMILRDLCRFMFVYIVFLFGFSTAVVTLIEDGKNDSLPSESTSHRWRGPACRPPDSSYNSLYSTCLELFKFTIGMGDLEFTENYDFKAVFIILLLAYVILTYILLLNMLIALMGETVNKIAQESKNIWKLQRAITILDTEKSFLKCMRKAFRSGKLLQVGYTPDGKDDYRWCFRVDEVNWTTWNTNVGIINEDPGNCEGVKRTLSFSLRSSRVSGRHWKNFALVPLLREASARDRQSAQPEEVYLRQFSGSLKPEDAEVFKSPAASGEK

`Cc1ccc(C(C(=O)NCc2ccc(C(F)(F)F)nc2SC2CCCCC2)c2ccc(NS(C)(=O)=O)c(F)c2)cc1` (stereo not drawn) [Compound 37]: the “fold loss in antagonistic potency compared to the corresponding parent (1 or 2)” value (shortened to “fold loss in antagonistic potency”) in experiment [1] is 3–8 fold.
As for `Cc1ccc(C(C(=O)NCc2ccc(C(F)(F)F)nc2N2CCC(C)CC2)c2ccc(NS(C)(=O)=O)c(F)c2)cc1` (stereo not drawn) [Compound 36], the “fold loss in antagonistic potency” value in experiment [1] was 3–8 fold.
As for `Cc1cccc(C(C(=O)NCc2ccc(C(F)(F)F)nc2N2CCC(C)CC2)c2ccc(NS(C)(=O)=O)c(F)c2)c1` (stereo not drawn) [Compound 34], the “fold more potent than parent 1” value in experiment [1] (improvement over parent 1) is reported as 3 fold. In addition, in experiment [2], the “fold weaker potency toward the other activators compared to 1” value is 5–15 fold.
As to `Cc1ccccc1C(C(=O)NCc1ccc(C(F)(F)F)nc1SC1CCCCC1)c1ccc(NS(C)(=O)=O)c(F)c1` (stereo not drawn) [Compound 33], the “fold loss in antagonistic potency” value in experiment [1] is more than 140 fold.
Regarding `Cc1ccccc1C(C(=O)NCc1ccc(C(F)(F)F)nc1N1CCC(C)CC1)c1ccc(NS(C)(=O)=O)c(F)c1` (stereo not drawn) [Compound 32], in experiment [1], the “fold loss in antagonistic potency” value is listed as more than 140 fold.
With `CC1CCN(c2nc(C(F)(F)F)ccc2CNC(=O)C(c2ccc(NS(C)(=O)=O)c(F)c2)C2CCCCC2)CC1` (stereo not drawn) [Compound 24], in experiment [1], the “fold loss in antagonistic potency” value is given as more than 100 fold.
The same measure, in the same setting: with `CS(=O)(=O)Nc1ccc(C(C(=O)NCc2ccc(C(F)(F)F)nc2SC2CCCCC2)C2CCCC2)cc1F` (stereo not drawn) [Compound 23] the figure was more than 100 fold.
On to `CS(=O)(=O)Nc1ccc(C(C(=O)NCc2ccc(C(F)(F)F)nc2SC2CCCCC2)C2CCCCC2)cc1F` (stereo not drawn) [Compound 25], for which the “fold loss in antagonistic potency” value in experiment [1] is more than 100 fold.
Same read-out and setting: with `Cc1cccc(C(C(=O)NCc2ccc(C(F)(F)F)nc2SC2CCCCC2)c2ccc(NS(C)(=O)=O)c(F)c2)c1` (stereo not drawn) [Compound 35] the figure was 60 fold; with `CC1CCN(c2nc(C(F)(F)F)ccc2CNC(=O)C(c2ccc(NS(C)(=O)=O)c(F)c2)C2CCCC2)CC1` (stereo not drawn) [Compound 22], more than 100 fold.
With `CCC(C(=O)NCc1ccc(C(F)(F)F)nc1N1CCC(C)CC1)c1ccc(NS(C)(=O)=O)c(F)c1` (stereo not drawn) [Compound 21], in experiment [1], the “fold loss in antagonistic potency” value is 5 fold.

Source of the values: paper PMC6957262 (Bioorganic & medicinal chemistry letters, 2015).
